Results on 13 compounds are retold here after ChEMBL document CHEMBL5291721, “A preclinical secondary pharmacology resource illuminates target-adverse drug reaction associations of marketed drugs” (Nat Commun, 2023).

For test [1], the target named is T1, Neuropeptide Y receptor type 1 (Homo sapiens, UniProt P25929).
T1 sequence (P25929 whole entry): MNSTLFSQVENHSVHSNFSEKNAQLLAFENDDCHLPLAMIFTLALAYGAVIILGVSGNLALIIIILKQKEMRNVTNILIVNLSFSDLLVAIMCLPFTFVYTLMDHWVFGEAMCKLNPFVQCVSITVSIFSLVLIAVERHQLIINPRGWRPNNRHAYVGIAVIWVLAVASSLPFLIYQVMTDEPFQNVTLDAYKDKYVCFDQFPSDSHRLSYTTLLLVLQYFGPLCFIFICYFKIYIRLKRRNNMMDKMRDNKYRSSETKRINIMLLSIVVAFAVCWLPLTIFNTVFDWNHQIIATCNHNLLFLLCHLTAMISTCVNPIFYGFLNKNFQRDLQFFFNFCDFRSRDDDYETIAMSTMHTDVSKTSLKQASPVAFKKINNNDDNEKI

Test [2] concerns the target T2, Alpha-2A adrenergic receptor (Homo sapiens, UniProt P08913).
T2 sequence (P08913 whole entry): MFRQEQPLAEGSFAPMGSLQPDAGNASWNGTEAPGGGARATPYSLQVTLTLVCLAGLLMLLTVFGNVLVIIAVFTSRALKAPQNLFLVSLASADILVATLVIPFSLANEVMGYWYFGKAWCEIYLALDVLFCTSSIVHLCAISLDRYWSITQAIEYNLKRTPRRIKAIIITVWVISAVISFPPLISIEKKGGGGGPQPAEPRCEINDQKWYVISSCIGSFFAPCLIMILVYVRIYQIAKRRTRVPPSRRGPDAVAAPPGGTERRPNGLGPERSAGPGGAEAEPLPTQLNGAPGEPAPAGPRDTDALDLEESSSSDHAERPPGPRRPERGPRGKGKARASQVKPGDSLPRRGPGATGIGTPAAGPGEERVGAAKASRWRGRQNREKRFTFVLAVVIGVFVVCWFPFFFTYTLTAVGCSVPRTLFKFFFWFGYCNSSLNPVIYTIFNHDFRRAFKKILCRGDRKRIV
The format is functional, cell-based.

In test [3] the target is Histamine H3 receptor (Homo sapiens, UniProt Q9Y5N1).
Test [4] addresses Kappa-type opioid receptor (Homo sapiens, UniProt P41145).
In test [5] the target is T2, Alpha-2A adrenergic receptor. The test is classed as functional, cell-based. This is another data set of the same source.
Test [6] concerns the target Glutamate receptor ionotropic, NMDA 1 (Rattus norvegicus, UniProt P35439).
For test [7], the target named is Neuronal acetylcholine receptor subunit alpha-4 (Homo sapiens, UniProt P43681).
Test [8] deals with Motilin receptor (Homo sapiens, UniProt O43193).
The target in test [9] is Bile salt export pump (Homo sapiens, UniProt O95342). The test is classed as functional.
Test [10] addresses 5-hydroxytryptamine receptor 2B (Homo sapiens, UniProt P41595). The format is functional, cell-based.
The target of test [11] is Beta-1 adrenergic receptor (Homo sapiens, UniProt P08588). The test is classed as functional.
Test [12] has as its target T3, Type-1 angiotensin II receptor (Homo sapiens, UniProt P30556).
T3 sequence (P30556 whole entry): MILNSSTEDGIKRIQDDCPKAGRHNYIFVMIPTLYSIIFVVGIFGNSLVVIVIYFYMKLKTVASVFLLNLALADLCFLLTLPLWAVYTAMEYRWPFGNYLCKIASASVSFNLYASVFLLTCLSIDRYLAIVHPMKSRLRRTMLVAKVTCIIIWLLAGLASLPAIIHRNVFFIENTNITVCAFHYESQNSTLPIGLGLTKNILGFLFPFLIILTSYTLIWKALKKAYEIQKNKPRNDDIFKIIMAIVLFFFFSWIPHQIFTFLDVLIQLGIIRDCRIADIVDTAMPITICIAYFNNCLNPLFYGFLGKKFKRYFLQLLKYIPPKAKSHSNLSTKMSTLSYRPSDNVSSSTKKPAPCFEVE

Test [13] concerns the target Histamine H1 receptor (Homo sapiens, UniProt P35367).
For test [14], the target named is 3',5'-cyclic-AMP phosphodiesterase 4A (Homo sapiens, UniProt P27815). The format is functional.
The target of test [15] is cGMP-inhibited 3',5'-cyclic phosphodiesterase 3A (Homo sapiens, UniProt Q14432). The test is classed as functional.
Test [16] has as its target T4, Sodium-dependent serotonin transporter (Homo sapiens, UniProt P31645).
The target of test [17] is Prostaglandin G/H synthase 1 (Homo sapiens, UniProt P23219). The test is classed as functional.
For test [18], the target named is T5, Mu-type opioid receptor (Homo sapiens, UniProt P35372).
For test [19], the target named is Prothrombin (Homo sapiens, UniProt P00734). The format is functional.
Test [20] has as its target T6, Thromboxane A2 receptor (Homo sapiens, UniProt P21731).
T6 sequence (P21731 whole entry): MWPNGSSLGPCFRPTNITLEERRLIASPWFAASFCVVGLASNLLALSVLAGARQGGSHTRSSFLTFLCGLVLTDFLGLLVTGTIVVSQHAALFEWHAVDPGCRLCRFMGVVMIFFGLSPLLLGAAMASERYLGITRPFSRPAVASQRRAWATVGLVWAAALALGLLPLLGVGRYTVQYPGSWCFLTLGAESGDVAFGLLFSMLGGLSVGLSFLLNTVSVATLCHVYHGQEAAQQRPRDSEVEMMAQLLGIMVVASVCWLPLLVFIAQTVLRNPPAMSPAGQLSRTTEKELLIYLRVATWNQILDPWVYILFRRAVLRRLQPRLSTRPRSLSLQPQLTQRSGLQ
The test is classed as functional, cell-based.

Test [21] concerns the target Melanocortin receptor 4 (Homo sapiens, UniProt P32245).
For test [22], the target named is Cannabinoid receptor 1 (Homo sapiens, UniProt P21554).
Test [23] concerns the target T4, Sodium-dependent serotonin transporter. This is another data set of the same source.
The target in test [24] is T5, Mu-type opioid receptor. The source holds these as a separate data set.
Also: assay procedure not described here.

Histamine H1 receptor, sequence (P35367 whole entry): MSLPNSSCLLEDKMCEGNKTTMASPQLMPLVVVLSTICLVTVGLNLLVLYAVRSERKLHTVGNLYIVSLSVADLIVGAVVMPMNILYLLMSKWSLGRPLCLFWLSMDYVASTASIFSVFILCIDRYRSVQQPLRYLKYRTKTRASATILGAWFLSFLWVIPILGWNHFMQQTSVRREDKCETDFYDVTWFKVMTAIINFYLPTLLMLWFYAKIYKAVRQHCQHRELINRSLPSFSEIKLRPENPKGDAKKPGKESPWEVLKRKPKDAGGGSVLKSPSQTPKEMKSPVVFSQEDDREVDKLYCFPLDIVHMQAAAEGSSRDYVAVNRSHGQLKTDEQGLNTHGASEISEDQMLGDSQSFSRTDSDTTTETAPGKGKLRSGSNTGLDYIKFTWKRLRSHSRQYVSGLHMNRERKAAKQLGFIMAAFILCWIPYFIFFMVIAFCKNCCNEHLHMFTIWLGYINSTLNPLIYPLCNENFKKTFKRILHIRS
Kappa-type opioid receptor, sequence (P41145 whole entry): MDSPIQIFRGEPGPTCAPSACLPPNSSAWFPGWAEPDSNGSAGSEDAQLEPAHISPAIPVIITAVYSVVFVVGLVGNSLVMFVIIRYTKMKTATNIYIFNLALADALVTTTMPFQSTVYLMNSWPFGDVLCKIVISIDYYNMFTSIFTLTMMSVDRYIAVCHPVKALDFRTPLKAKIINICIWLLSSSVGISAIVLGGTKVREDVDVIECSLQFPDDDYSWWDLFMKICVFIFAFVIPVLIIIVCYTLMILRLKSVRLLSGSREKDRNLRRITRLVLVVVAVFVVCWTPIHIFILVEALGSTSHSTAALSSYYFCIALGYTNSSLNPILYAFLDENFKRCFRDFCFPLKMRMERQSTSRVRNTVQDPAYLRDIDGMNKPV
Beta-1 adrenergic receptor, sequence (P08588 whole entry): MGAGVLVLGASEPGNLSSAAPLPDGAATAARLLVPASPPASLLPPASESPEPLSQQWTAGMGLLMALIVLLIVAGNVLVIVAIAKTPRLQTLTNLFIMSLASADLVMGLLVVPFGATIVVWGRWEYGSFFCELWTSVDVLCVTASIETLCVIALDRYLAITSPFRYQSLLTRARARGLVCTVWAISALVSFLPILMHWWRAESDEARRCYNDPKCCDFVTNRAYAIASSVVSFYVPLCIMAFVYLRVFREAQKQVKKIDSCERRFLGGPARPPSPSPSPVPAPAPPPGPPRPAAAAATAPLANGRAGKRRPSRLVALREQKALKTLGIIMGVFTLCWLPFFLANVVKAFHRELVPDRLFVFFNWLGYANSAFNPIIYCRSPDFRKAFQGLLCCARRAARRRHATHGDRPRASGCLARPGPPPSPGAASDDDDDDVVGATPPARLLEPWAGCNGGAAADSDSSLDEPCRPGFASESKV
T5 sequence (P35372 whole entry): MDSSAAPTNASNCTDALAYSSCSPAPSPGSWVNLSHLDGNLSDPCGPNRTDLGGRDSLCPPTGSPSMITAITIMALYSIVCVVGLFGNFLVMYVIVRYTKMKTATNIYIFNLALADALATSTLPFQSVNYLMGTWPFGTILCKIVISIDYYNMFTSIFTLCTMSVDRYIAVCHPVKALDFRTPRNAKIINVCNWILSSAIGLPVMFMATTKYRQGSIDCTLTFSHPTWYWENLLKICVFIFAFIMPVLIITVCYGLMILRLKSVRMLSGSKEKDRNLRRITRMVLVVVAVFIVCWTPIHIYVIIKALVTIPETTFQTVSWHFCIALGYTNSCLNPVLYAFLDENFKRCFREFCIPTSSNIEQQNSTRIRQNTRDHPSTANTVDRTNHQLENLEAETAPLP
Prostaglandin G/H synthase 1, sequence (P23219 whole entry): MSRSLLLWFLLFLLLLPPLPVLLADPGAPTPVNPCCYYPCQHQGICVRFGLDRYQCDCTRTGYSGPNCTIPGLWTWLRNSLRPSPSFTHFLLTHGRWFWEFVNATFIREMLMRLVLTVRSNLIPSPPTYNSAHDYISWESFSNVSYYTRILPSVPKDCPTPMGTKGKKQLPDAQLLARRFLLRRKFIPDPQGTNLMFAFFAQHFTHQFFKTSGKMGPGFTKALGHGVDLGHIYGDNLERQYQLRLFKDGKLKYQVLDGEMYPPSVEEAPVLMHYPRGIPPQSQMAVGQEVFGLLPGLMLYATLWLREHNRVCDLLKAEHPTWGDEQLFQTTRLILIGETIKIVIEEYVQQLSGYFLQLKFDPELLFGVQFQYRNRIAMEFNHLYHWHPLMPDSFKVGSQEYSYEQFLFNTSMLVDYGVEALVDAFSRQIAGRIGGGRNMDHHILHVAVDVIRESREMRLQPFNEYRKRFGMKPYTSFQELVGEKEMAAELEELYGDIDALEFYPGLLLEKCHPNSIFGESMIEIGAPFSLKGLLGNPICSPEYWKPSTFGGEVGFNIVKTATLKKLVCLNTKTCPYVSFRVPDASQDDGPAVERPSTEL
Bile salt export pump, sequence (O95342 whole entry): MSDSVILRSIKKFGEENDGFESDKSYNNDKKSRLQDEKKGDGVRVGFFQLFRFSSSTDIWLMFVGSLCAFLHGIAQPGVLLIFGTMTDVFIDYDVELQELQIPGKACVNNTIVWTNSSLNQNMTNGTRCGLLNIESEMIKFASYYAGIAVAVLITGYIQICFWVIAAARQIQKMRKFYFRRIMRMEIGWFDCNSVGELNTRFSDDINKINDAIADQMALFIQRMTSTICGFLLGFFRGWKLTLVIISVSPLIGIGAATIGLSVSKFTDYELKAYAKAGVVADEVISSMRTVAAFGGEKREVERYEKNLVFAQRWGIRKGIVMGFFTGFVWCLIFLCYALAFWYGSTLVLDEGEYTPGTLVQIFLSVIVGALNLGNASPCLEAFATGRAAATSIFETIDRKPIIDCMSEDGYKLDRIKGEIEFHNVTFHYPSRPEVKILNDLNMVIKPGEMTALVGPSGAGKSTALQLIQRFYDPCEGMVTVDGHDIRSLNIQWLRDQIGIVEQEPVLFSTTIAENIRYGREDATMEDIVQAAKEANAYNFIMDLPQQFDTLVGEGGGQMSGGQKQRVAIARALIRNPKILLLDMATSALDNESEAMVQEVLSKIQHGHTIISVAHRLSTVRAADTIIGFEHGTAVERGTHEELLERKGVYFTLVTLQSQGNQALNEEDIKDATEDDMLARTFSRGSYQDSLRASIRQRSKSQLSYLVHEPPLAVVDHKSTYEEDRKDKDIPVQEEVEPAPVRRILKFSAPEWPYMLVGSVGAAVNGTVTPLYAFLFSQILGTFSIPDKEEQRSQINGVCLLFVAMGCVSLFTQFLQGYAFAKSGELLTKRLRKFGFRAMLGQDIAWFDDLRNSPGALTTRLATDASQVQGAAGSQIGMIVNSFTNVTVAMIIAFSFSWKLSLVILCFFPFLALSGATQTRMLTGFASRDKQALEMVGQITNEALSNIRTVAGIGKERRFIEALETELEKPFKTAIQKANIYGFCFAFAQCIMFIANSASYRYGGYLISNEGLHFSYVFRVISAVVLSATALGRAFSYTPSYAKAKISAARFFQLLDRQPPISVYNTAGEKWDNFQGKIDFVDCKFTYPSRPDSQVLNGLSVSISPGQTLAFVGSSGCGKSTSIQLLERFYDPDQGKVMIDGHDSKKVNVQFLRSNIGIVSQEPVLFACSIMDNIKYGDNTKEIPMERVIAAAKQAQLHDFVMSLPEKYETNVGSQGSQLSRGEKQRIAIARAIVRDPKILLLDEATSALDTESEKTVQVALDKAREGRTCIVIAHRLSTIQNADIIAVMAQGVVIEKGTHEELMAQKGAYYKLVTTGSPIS
5-hydroxytryptamine receptor 2B, sequence (P41595 whole entry): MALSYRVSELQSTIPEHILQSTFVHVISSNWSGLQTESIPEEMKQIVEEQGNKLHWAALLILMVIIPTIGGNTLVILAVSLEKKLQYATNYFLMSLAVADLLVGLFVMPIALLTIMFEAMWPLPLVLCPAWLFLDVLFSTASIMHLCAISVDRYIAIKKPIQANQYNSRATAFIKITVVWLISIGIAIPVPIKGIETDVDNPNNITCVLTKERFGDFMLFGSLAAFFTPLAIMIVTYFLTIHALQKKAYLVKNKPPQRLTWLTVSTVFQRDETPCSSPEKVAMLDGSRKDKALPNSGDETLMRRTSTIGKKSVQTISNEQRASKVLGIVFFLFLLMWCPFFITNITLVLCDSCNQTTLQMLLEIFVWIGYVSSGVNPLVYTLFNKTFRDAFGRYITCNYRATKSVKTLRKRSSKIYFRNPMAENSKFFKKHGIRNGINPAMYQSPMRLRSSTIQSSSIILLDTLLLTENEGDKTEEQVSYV
Neuronal acetylcholine receptor subunit alpha-4, sequence (P43681 whole entry): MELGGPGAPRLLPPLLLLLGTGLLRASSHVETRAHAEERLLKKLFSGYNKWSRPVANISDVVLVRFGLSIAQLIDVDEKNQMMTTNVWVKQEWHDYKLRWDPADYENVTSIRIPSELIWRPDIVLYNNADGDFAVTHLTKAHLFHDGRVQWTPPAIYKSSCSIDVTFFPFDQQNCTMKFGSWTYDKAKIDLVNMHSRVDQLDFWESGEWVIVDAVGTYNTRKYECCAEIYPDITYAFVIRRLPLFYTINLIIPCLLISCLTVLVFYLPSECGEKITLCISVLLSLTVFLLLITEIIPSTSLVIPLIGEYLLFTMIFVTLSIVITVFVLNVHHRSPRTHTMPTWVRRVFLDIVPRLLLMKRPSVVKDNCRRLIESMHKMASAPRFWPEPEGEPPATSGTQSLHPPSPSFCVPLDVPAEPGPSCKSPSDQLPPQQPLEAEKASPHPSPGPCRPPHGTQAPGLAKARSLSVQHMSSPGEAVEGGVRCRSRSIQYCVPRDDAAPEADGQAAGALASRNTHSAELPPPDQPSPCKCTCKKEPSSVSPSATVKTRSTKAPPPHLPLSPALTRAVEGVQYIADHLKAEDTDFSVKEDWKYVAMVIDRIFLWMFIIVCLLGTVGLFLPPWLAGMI

By AC50 is commonly meant the midpoint of the concentration-response curve, whichever way the signal moves. Consider `NCCCNCCSP(=O)(O)O` [AMIFOSTINE], for which the AC50 in [1], in test [2], in test [3], in test [4], in test [5] and in [6] was over 30 µM throughout. For the same compound, the concentration at half-maximal activity (AC50) in [7] is over 30 µM; in [8] it was over 30 µM; in test [9], over 300 µM; in test [10] it was over 30 µM; in test [11] it was over 30 µM; in test [12], over 30 µM.

`O=C(Cc1cccs1)N[C@@H]1C(=O)N2C(C(=O)[O-])=C(C[n+]3ccccc3)CS[C@H]12` [CEPHALORIDINE]: the AC50 in test [2] is over 30 µM; in test [13] it was over 30 µM; in test [14], over 3 µM; in [15], over 30 µM; in test [4] it was over 30 µM; in [5] it was over 30 µM. Besides, the concentration at half-maximal activity (AC50) in test [16] is over 30 µM; in [6], over 30 µM; in test [17], 16.4 µM; in [18], over 30 µM; in [19] it was over 30 µM; in test [10], over 30 µM. This compound also returned a concentration at half-maximal activity (AC50) in test [20] of over 30 µM.

For the compound `O=P1(N(CCCl)CCCl)NCCCO1` (stereo not drawn) [CYCLOPHOSPHAMIDE ANHYDROUS], the concentration at half-maximal activity (AC50) in [14] is over 30 µM; in test [15] it was over 30 µM; in test [17], over 30 µM; in [18] it was over 30 µM; in test [9] it was over 300 µM; in [19] it was over 30 µM. In [20], this compound displayed an AC50 of over 30 µM.

For the compound `CO[C@@]1(NC(=O)C(C(=O)O)c2ccc(O)cc2)C(=O)N2C(C(=O)O)=C(CSc3nnnn3C)CO[C@@H]21` (stereo partly drawn) [MOXALACTAM], the AC50 was over 30 µM in test [14]; over 30 µM in test [15]; over 30 µM in [16]; 9.25 µM in test [17]; over 30 µM in [18]; over 30 µM in test [19]. The AC50 in test [20] was over 30 µM.

`CS(=O)(=O)Nc1ccc([N+](=O)[O-])cc1Oc1ccccc1` [NIMESULIDE]: the AC50 in test [1] is over 30 µM; in test [2] it was over 30 µM; in test [3], over 30 µM; in [14], over 10 µM; in test [15] it was over 30 µM; in test [4], over 30 µM. Moreover, the concentration at half-maximal activity (AC50) in test [5] is over 30 µM; in [6], over 30 µM; in test [7] it was 21 µM; in test [18] it was over 30 µM; in test [8], 27 µM; in test [9], 110 µM. The AC50 was over 30 µM in test [19]; over 30 µM in test [10]; over 30 µM in test [11]; over 30 µM in [20]; 20 µM in test [12].

In the case of `C#CCN(C)Cc1ccccc1` [PARGYLINE], the AC50 in test [2], in [13], in [14], in test [15], in [4] and in test [5] was over 30 µM throughout. In addition, the AC50 in test [16], in test [6], in test [17], in [18], in test [19] and in test [10] was over 30 µM throughout. In test [20], this compound displayed a concentration at half-maximal activity (AC50) of over 30 µM.

As for `NC(=O)C1(N2CCCCC2)CCN(CCCC(=O)c2ccc(F)cc2)CC1` [PIPAMPERONE], the half-maximal activity concentration (AC50) in test [14] is over 30 µM; in test [15] it was over 30 µM; in test [16] it was 15.8 µM; in test [17] it was over 30 µM; in test [18], 7.02 µM; in [19] it was over 30 µM. Besides, the AC50 in test [20] was over 30 µM.

On to `COc1cccc2c1C(=O)c1c(O)c3c(c(O)c1C2=O)C[C@@](O)(C(=O)CO)C[C@@H]3O[C@H]1C[C@H](N)[C@H](O[C@@H]2CCCCO2)[C@H](C)O1` [PIRARUBICIN], for which the concentration at half-maximal activity (AC50) in test [14] was over 30 µM; in [15], over 30 µM; in test [16] it was over 30 µM; in test [17], 0.5 µM; in test [18], over 30 µM; in test [19] it was over 30 µM. The compound further had a half-maximal activity concentration (AC50) in [20] of over 10 µM.

As to `CC(C)(Oc1ccc(Cl)cc1)C(=O)NC(=O)NCN1CCOCC1` [PLAFIBRIDE], the AC50 in [14], in [15], in test [16], in test [17], in test [18] and in test [19] was over 30 µM each time. Besides, in test [20], the AC50 was over 30 µM.

Regarding `CC(C)NC[C@H](O)COc1ccc(O)cc1` [PRENALTEROL], the AC50 in test [14] was over 30 µM; in [15] it was over 30 µM; in test [16], over 30 µM; in [17], 8.99 µM; in test [18], over 30 µM; in test [19] it was over 30 µM. This compound registered an AC50 in test [20] of over 30 µM.

For the compound `CN1CCC(N(Cc2cccs2)c2ccccc2)CC1` [THENALIDINE], the AC50 is over 30 µM in [14]; over 30 µM in [15]; 18 µM in test [16]; over 30 µM in [17]; 7.42 µM in test [18]; over 30 µM in [19]. In test [20], this compound returned an AC50 of over 30 µM.

Turning to `CN(C)CCN(Cc1ccccc1)c1ccccn1` [TRIPELENNAMINE], the AC50 in [1] is over 10 µM; in test [2], over 10 µM; in test [13] it was 0.08 µM; in [14] it was over 30 µM; in [15], over 30 µM; in test [4], 6.25 µM. The AC50 in test [5] is over 10 µM; in [16] it was 0.395 µM; in test [6], over 10 µM; in test [7] it was over 10 µM; in [17] it was over 30 µM; in [18] it was over 30 µM. Also, the AC50 in [21] was over 10 µM; in test [22], over 10 µM; in test [8], over 10 µM; in [19], over 30 µM; in test [10], over 10 µM; in test [11] it was over 30 µM. For the same compound, the AC50 is 0.209 µM in test [23], over 30 µM in test [24], over 30 µM in test [20] and over 10 µM in [12].

With `Cc1cccc(C)c1NC(=O)c1cc(S(N)(=O)=O)c(Cl)cc1O` [XIPAMIDE], the half-maximal activity concentration (AC50) in test [14], in test [15], in test [16], in test [17], in test [18] and in test [19] was over 30 µM throughout. Besides, the AC50 in test [20] was over 30 µM.
